From patent US20150044244A1, “COMBINED FACILITATOR, ANTIGEN AND DNA VACCINE FOR PREVENTING AND TREATING AUTOIMMUNE DISEASES” (BEIJING ADVANCCINE BIOTECHNOLOGY CO. LTD., priority 2011, published 2015)

Tested on: naive CD4+CD25− T cells
Assay: In vitro induction of iTregs by DCreg with cytokine blockade
Assay type: cell-based, mice
Conditions: blockade during co-culture (stage 1)
Method: In vitro T cell priming assays. To generate CD4^+CD25^−Foxp3^+ cells in vitro, Naive CD11c^+ dendritic cells (2×10^5) were cultured in 6-well, and stimulated with pVAX-Derp1 (10 μg/ml) plus Derp1 peotein (10 μg/ml) in the present of anti-IL10 or TGF-β for 48 hrs. Three groups of dendritic cells pretreated were added to culture medium with naive CD4^+CD25^− T cells (1×10^6) in RPMI 1640 each 48 hrs for 3 times. And then GFP expression in CD4^+CD25^− T cells were analyzed by FACS. To check the roles of cytokines during DCreg induce iTregs, we co-cultured CD11c^+ DC pretreated with pVAX-Derp1 (10 μg/ml) plus Derp1 peotein (10 μg/ml) with naive T cells, synchronously, plus anti-IL-10, anti-TGF-β or TGF-β receptor inhibitor, SB-525334 (14.3 nM) each 48 hrs for 3 times. […]
As reported, blockade of TGF-β and IL-10 could demolish the development and suppressive function of iTregs. […] The roles of TGF-β and IL-10 were detected during the induction of iTregs by DCreg in vitro. GFP expression in CD4^+CD25^− T cells was detected after 72 hrs of co-culture with CD11C^+ DCreg 3 times each two days in the presence of anti-IL-10 or anti-TGF-β as stage 1 in FIG. 13A. […]

SMILES: Cc1cccc(-c2[nH]c(C(C)(C)C)nc2-c2ccc3nccnc3c2)n1 [SB-525334]
- generation of CD4+CD25−GFP+ iTregs by DCreg: could decrease the iTreg induction
